According to PubChem BioAssay AID977613 (Broad Institute, 2014):
Active and inactive are the calls of the source. How the calls were made is not given here.

System: Broad 7084-01 inhibitor HTS, set 2
Assay: single-concentration hits, screen 7084 set 2 (AID 977613);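 further: host cells are infected with parasite promastigotes that become internalized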

SMILES	active concentration
Cn1cnc(S(=O)(=O)N2C[C@H](O)COC[C@H]3O[C@@H](CC(=O)NC4CCCC4)CC[C@@H]32)c1	> 10 µM (inactive)
COc1ccc(-c2ccccc2[C@H]2[C@@H](CO)N(C(=O)NC(C)C)[C@H]2C#N)cc1	> 10 µM (inactive)
COc1cc(CN2CC3(CCN(S(=O)(=O)c4cn(C)cn4)CC3)c3c(n(C)c4cc(OC)ccc34)[C@H]2CO)cc(OC)c1	> 10 µM (inactive)
COCC(=O)N1[C@@H](C#N)[C@@H](c2ccccc2-c2cccc(C)c2)[C@@H]1CO	> 10 µM (inactive)
O=C(O)[C@H]1[C@H](CO)[C@H]2Cn3c(ccc(-c4cncnc4)c3=O)[C@H]2N1C(=O)C1CCCCC1	> 10 µM (inactive)
CCNC(=O)C[C@H]1CC[C@H]2[C@@H](COC[C@@H](O)CN2C(=O)C2CC2)O1	> 10 µM (inactive)
O=C(Nc1ccccc1)N1CC(=O)N2[C@@H](CO)[C@H](c3ccc(C#CC4CCCCC4)cc3)[C@@H]2C1	> 10 µM (inactive)
COCC(=O)N1[C@H](C#N)[C@@H](c2ccccc2-c2cccc(C)c2)[C@@H]1CO	> 10 µM (inactive)
O=C(c1cccc(F)c1)N1CCCCN2[C@@H](CO)[C@@H](c3ccc(C#CC4(O)CCCC4)cc3)[C@@H]2C1	> 10 µM (inactive)
O=C(NC1Cc2ccccc2C1)[C@H]1N[C@H]2c3cccc(=O)n3C[C@H]2[C@@H]1CO	> 10 µM (inactive)
O=S(=O)(c1ccc(F)cc1)N1C[C@@H]2[C@H](c3ccccc31)[C@H](CO)N2Cc1ccc2c(c1)OCO2	> 10 µM (inactive)
CN1C[C@H](O)COC[C@H]2O[C@H](CC(=O)NC3CCCC3)CC[C@@H]21	> 10 µM (inactive)
N#C[C@@H]1[C@@H](c2ccccc2-c2ccccc2F)[C@@H](CO)N1C(=O)Cc1ccccc1	> 10 µM (inactive)
CCCNC(=O)N1CC2(C1)[C@@H](c1ccccc1)[C@@H](CO)N2Cc1ccccn1	> 10 µM (inactive)
